Here are results for 21 compounds from patent USRE37781E1, “Substituted cyclic carbonyls and derivatives thereof useful as retroviral protease inhibitors” (DuPont Pharmaceuticals Company, priority 1991, dated 2002).

By IC90 is commonly meant the point of the concentration-response curve where the effect stands at 90%.

Read-outs that look alike come from different tables or passages of the source.

The subject of one assay is HIV-1 (RF) in MT-2 cells. Briefly: microbe, parasite or virus in culture. In kind it is cell-based. The method in brief:
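HIV-1 laboratory strains (RF, MN, IIIB) grown in H9 cells in RPMI 1640 with 5% FCS; infections in MT-2 cells. Viral RNA quantified by hybridization with biotinylated gag/pol capture probes on streptavidin plates and alkaline phosphatase-conjugated reporter probes; BH10 gag-pol in vitro transcripts serve as RNA standards.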

The target of assay [1] is single-chain tethered dimer of HIV protease (Human immunodeficiency virus 1, UniProt P04585). As to the kind of experiment: biochemical. In kind it is biochemical. Also noted: fused on or other part: A second copy of the same protease unit is joined to the first by a short peptide tether, giving one polypeptide.
[2] abbreviates: Human immunodeficiency virus 1, MT2, 48 h, Table 2d, HIV RNA assay, read-out: IC90.
The mark [3] stands for this setting: read-out: HPLC K1, Table 2d, HIV protease inhibition, HPLC method.
Setting [4] is: Human immunodeficiency virus 1, MT2, 48 h, Table 2d, class symbols, read-out: IC90.
The mark [5] stands for this setting: read-out: HPLC K1, Table 2d, class symbols.
[6] abbreviates: Table 2d, HIV protease inhibition, HPLC method, read-out: HPLC K1.
Setting [7] is: Table 2d, class symbols, read-out: HPLC K1.

Consider `Nc1cccc(CN2C(Cc3ccccc3)C(O)C(O)C(Cc3ccccc3)N(Cc3cccc(N)c3)S2(=O)=O)c1` (stereo not drawn) [23M], for which the concentration for an effect of 90% (IC90) entry in the assay with HIV-1 (RF) in MT-2 cells (Table 2m) is given as “+++ (+++=<10 μg/mL)”. The Ki in assay [1] (Table 2m, read-out: HPLC Ki) was less than 10 nM.

For the compound `CCCC(=O)c1cccc(CN2C(=O)N(Cc3cccc(C(=O)CCC)c3)C(Cc3ccc(F)cc3)C(O)C(O)C2Cc2ccc(F)cc2)c1` (stereo not drawn) [20P], the concentration for an effect of 90% (IC90) entry with HIV-1 (RF) in MT-2 cells (Table 2i) was “+++ (+++=<10 μg/mL)”. Also, the Ki in assay [1] (Table 2i, read-out: HPLC Ki) is less than 10 nM.

`N#Cc1cccc(CN2C(=S)N(Cc3ccccc3)C(Cc3ccccc3)C(O)C(O)C2Cc2ccccc2)c1` (stereo not drawn) [Example 27E]: in the assay with HIV-1 (RF) in MT-2 cells (Table 2q), the IC90 result was “+++ (+++=<10 μg/mL)”. Also, in assay [1] (Table 2q, read-out: HPLC Ki), the Ki is less than 10 nM.

With `O=C1N(Cc2cccc(O)c2)C(Cc2cccc(O)c2)C(O)C(O)C(Cc2cccc(O)c2)N1Cc1cccc(O)c1` (stereo not drawn) [20AQ], the concentration for an effect of 90% (IC90) entry in the assay on HIV-1 (RF) in MT-2 cells (Table 2i) was “+++ (+++=<10 μg/mL)”. Further, in assay [1] (Table 2i, read-out: HPLC Ki), the Ki was less than 10 nM.

Regarding `NC(=NO)c1cccc(CN2C(=O)N(Cc3cccc(C(N)=NO)c3)C(Cc3ccc(F)c(F)c3)C(O)C(O)C2Cc2ccc(F)c(F)c2)c1` (stereo not drawn) [20AD], the 90% effect concentration (IC90) result in the assay with HIV-1 (RF) in MT-2 cells (Table 2i) is listed as “+++ (+++=<10 μg/mL)”. In addition, the Ki in assay [1] (Table 2i, read-out: HPLC Ki) is less than 10 nM.

For the compound `O=C(NCCN1CCOCC1)c1cccc(CN2C(=O)N(Cc3cccc(-c4cc[nH]n4)c3)C(Cc3ccccc3)C(O)C(O)C2Cc2ccccc2)c1` (stereo not drawn) [Example 15BT], in the assay with HIV-1 (RF) in MT-2 cells (setting [2]), the IC90 is less than 10 µg/mL. Besides, the Ki in assay [1] (setting [3]) is less than 10 nM.

In the case of `N#Cc1cc(CN2C(=O)N(Cc3ccc(F)c(C#N)c3)C(Cc3ccccc3)C(O)C(O)C2Cc2ccccc2)ccc1F` (stereo not drawn) [15EC], the IC90 in the assay on HIV-1 (RF) in MT-2 cells (setting [2]) is less than 10 µg/mL. Besides, the Ki in assay [1] (setting [3]) is 10 to 1000 nM.

As for `O=C1N(CCCCCO)C(Cc2ccccc2)C(O)C(O)C(Cc2ccccc2)N1Cc1ccc(CO)cc1` (stereo not drawn) [Example 15VK], the IC90 with HIV-1 (RF) in MT-2 cells (setting [4]) was less than 10 µg/mL. In assay [1] (setting [5]), the Ki is less than 10 nM.

As to `COc1cccc(CN2C(=S)N(Cc3cccc(OC)c3)C(Cc3ccccc3)C(O)C(O)C2Cc2ccccc2)c1` (stereo not drawn) [Example 27G], the IC90 result in the assay with HIV-1 (RF) in MT-2 cells (Table 2q) is reported as “+++ (+++=<10 μg/mL)”. Also, the Ki in assay [1] (Table 2q, read-out: HPLC Ki) was less than 10 nM.

As to `O=C(NCCCCCN1C(=O)N(CCCCCNC(=O)c2ccccc2F)C(Cc2ccccc2)C(O)C(O)C1Cc1ccccc1)c1ccc(F)cc1` (stereo not drawn) [15FC], in the assay on HIV-1 (RF) in MT-2 cells (HIV RNA assay, HIV-1 infected MT-2 cells, Table 2d), the IC90 result is reported as “++/+ (The ++/+ is used in the cases where an IC90 was determined to be >50 μg/mL)”. In assay [1] (HIV protease inhibition, HPLC method, Table 2d, read-out: HPLC K1), the Ki lay in the range of 10 to 1000 nM.

With `NC(=NO)c1cc(CN2C(=O)N(Cc3ccc(F)c(C(N)=NO)c3)C(Cc3ccccc3)C(O)C(O)C2Cc2ccccc2)ccc1F` (stereo not drawn) [15EF], the IC90 entry in the assay on HIV-1 (RF) in MT-2 cells (Table 2d, HIV RNA assay) is “+++ (+++=<10 μg/mL)”. Besides, the Ki in assay [1] (setting [6]) is less than 10 nM.

`O=C1N(Cc2ccc(OCc3ccccc3)cc2)C(Cc2ccccc2)C(O)C(O)C(Cc2ccccc2)N1Cc1cccc(-c2cc[nH]n2)c1` (stereo not drawn) [Example 15BY]: in the assay with HIV-1 (RF) in MT-2 cells (setting [2]), the 90% effect concentration (IC90) is less than 10 µg/mL. Moreover, the Ki in assay [1] (setting [3]) is less than 10 nM.

For the compound `O=C1N(Cc2ccc(CO)cc2)C(Cc2ccccc2)C(O)C(O)C(Cc2ccccc2)N1Cc1ccccc1O` (stereo not drawn) [15EA], the concentration for an effect of 90% (IC90) in the assay with HIV-1 (RF) in MT-2 cells (setting [2]) was less than 10 µg/mL. In assay [1] (setting [3]), the Ki is less than 10 nM.

For the compound `NCc1ccc(CN2C(=O)N(Cc3ccc(CO)cc3)C(Cc3ccccc3)C(O)C(O)C2Cc2ccccc2)cc1` (stereo not drawn) [Example 15YH], the IC90 entry in the assay on HIV-1 (RF) in MT-2 cells (Table 2d, HIV RNA assay) is recorded as “++ (++=10 to 100 μg/mL)”. Further, in assay [1] (setting [6]), the Ki lay in the range of 10 to 1000 nM.

In the case of `O=C1N(CC2CC2)C(Cc2ccccc2)C(O)C(O)C(Cc2ccccc2)N1CC1CC1` (stereo not drawn) [Example 13o], the concentration for an effect of 90% (IC90) entry with HIV-1 (RF) in MT-2 cells (Table 2d, class symbols) is recorded as “++ (++=10 to 100 μg/mL)”. The Ki in assay [1] (setting [7]) is greater than 1000 nM.

`O=C1N(CC2CC2)C(C(F)Cc2ccccc2)C[C@@H](Cc2ccccc2)N1CC1CC1` (stereo partly drawn) [Example 8N]: the IC90 in the assay on HIV-1 (RF) in MT-2 cells (Human immunodeficiency virus 1, MT2, Table 1e, read-out: IC90) is less than 10 µg/mL. In addition, the Ki in assay [1] (read-out: Ki (HPLC), Table 1e, cells marked (HPLC)) is greater than 1000 nM.

As for `O=C1N(Cc2cccc(OCC(O)CO)c2)C(Cc2ccccc2)C(O)C(O)C(Cc2ccccc2)N1Cc1cccc(OCC(O)CO)c1` (stereo not drawn) [10T], the 90% effect concentration (IC90) entry in the assay on HIV-1 (RF) in MT-2 cells (Table 2d, class symbols) is given as “+++ (+++=<10 μg/mL)”. For the same compound, in assay [1] (setting [7]), the Ki was less than 10 nM.

Take `O=C1N(Cc2ccc3oc(=O)[nH]c3c2)C(Cc2ccccc2)C(O)C(O)C(Cc2ccccc2)N1Cc1ccc2oc(=O)[nH]c2c1` (stereo not drawn) [15DC]: the 90% effect concentration (IC90) result in the assay with HIV-1 (RF) in MT-2 cells (Table 2d, HIV RNA assay) is recorded as “+++ (+++=<10 μg/mL)”. Besides, the Ki in assay [1] (setting [6]) is less than 10 nM.

As for `CS(=O)(=O)NCCCCCN1C(=O)N(CCCCCNS(C)(=O)=O)C(Cc2ccccc2)C(O)C(O)C1Cc1ccccc1` (stereo not drawn) [15EN], the IC90 entry in the assay on HIV-1 (RF) in MT-2 cells (Table 2d, HIV RNA assay) is “++/+ (The ++/+ is used in the cases where an IC90 was determined to be >50 μg/mL)”. For the same compound, the Ki in assay [1] (setting [6]) lay in the range of 10 to 1000 nM.

With `O=C1N(Cc2cccc([N+](=O)[O-])c2)C(Cc2ccccc2)C(O)C(O)C(Cc2ccccc2)N1CC1CC1` (stereo not drawn) [15H], in the assay on HIV-1 (RF) in MT-2 cells (setting [4]), the IC90 was less than 10 µg/mL. Moreover, in assay [1] (setting [5]), the Ki was less than 10 nM.

In the case of `COc1cccc(CC2NC(=O)NC(Cc3cccc(OC)c3)C(O)C2O)c1` (stereo not drawn) [20AO], the IC90 result in the assay on HIV-1 (RF) in MT-2 cells (Table 2i) was “++ (++=10 to 100 μg/mL)”. Further, the Ki in assay [1] (Table 2i, read-out: HPLC Ki) is 10 to 1000 nM.
